# Measurements: patent US20030129629A1, “Methods and compositions for the identification, assessment, prevention, and therapy of human cancers” (Millennium Pharmaceuticals, Inc., priority 2000, published 2003)
# Counter-ions that a name gives are not always drawn.
# Tested on: 60 cancer cell lines (NCI 60 cancer cell line series)
# Assay: NCI-DTP in vitro cancer screen, sulforhodamine B (SRB) growth inhibition, 48 hour exposure
# Format: cell-based, human
# Procedure, shortened: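 Potency is given as mean −log{GI50} from dose–response curves, manually binned into Low, Medium or High sensitivity. Sixty NCI-DTP tumour lines were treated 48 h with a duplicate, five-dose, ten-fold dilution series, and growth read by SRB staining of cell mass.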
compound,measurement,setting,value
CC[C@]1(O)C[C@H]2CN(CCc3c([nH]c4ccccc34)[C@@](C(=O)OC)(c3cc4c(cc3OC)N(C=O)[C@H]3[C@@](O)(C(=O)OC)[C@H](OC(C)=O)[C@]5(CC)C=CCN6CC[C@]43[C@@H]65)C2)C1 [Vincristine sulfate],"classification of cell line as Low(1), Medium(2), High(3) sensitivity to compound",Breast BT-549 CL5013,1
same,"classification of cell line as Low(1), Medium(2), High(3) sensitivity to compound",Breast HS-578T CL5006,2
same,"classification of cell line as Low(1), Medium(2), High(3) sensitivity to compound",Breast MCF7(I) CL5001,2
same,"classification of cell line as Low(1), Medium(2), High(3) sensitivity to compound",Breast MCF7/ADRr CL5002,2
same,"classification of cell line as Low(1), Medium(2), High(3) sensitivity to compound",Breast MDA-MB-231 CL5005,2
same,"classification of cell line as Low(1), Medium(2), High(3) sensitivity to compound",Breast MDA-MB-435 CL5011,2
same,"classification of cell line as Low(1), Medium(2), High(3) sensitivity to compound",Breast MDA-N CL5012,2
same,"classification of cell line as Low(1), Medium(2), High(3) sensitivity to compound",Breast T-47D CL5014,1
same,"classification of cell line as Low(1), Medium(2), High(3) sensitivity to compound",CNS SF-268 CL12014,2
same,"classification of cell line as Low(1), Medium(2), High(3) sensitivity to compound",CNS SF-295 CL12015,3
same,"classification of cell line as Low(1), Medium(2), High(3) sensitivity to compound",CNS SF-539 CL12016,3
same,"classification of cell line as Low(1), Medium(2), High(3) sensitivity to compound",CNS SNB-19 CL12002,2
same,"classification of cell line as Low(1), Medium(2), High(3) sensitivity to compound",CNS SNB-75(I) CL12005,2
same,"classification of cell line as Low(1), Medium(2), High(3) sensitivity to compound",CNS U251(I) CL12009,2
same,"classification of cell line as Low(1), Medium(2), High(3) sensitivity to compound",Colon COLO-250 CL4010,2
same,"classification of cell line as Low(1), Medium(2), High(3) sensitivity to compound",Colon HCC-2998 CL4002,2
same,"classification of cell line as Low(1), Medium(2), High(3) sensitivity to compound",Colon HCT-15 CL4015,2
same,"classification of cell line as Low(1), Medium(2), High(3) sensitivity to compound",Colon HCT-116 CL4003,2
same,"classification of cell line as Low(1), Medium(2), High(3) sensitivity to compound",Colon HT29(I) CL4001,3
same,"classification of cell line as Low(1), Medium(2), High(3) sensitivity to compound",Colon KM12 CL4017,3
same,"classification of cell line as Low(1), Medium(2), High(3) sensitivity to compound",Colon SW-620 CL4009,3
same,"classification of cell line as Low(1), Medium(2), High(3) sensitivity to compound",Leukemia CCRF-CEM(I) CL7003,3
same,"classification of cell line as Low(1), Medium(2), High(3) sensitivity to compound",Leukemia HL-60(I) CL7008,3
same,"classification of cell line as Low(1), Medium(2), High(3) sensitivity to compound",Leukemia K562(I) CL7005,3
same,"classification of cell line as Low(1), Medium(2), High(3) sensitivity to compound",Leukemia MOLT-4 CL7006,3
same,"classification of cell line as Low(1), Medium(2), High(3) sensitivity to compound",Leukemia RPMI-8226(I) CL7010,3
same,"classification of cell line as Low(1), Medium(2), High(3) sensitivity to compound",Leukemia SR CL7019,3
same,"classification of cell line as Low(1), Medium(2), High(3) sensitivity to compound",Melanoma LOX IMVI CL10001,3
same,"classification of cell line as Low(1), Medium(2), High(3) sensitivity to compound",Melanoma M14 CL10014,2
same,"classification of cell line as Low(1), Medium(2), High(3) sensitivity to compound",Melanoma MALME-3M CL10002,2
same,"classification of cell line as Low(1), Medium(2), High(3) sensitivity to compound",Melanoma SK-MEL-2 CL10005,2
same,"classification of cell line as Low(1), Medium(2), High(3) sensitivity to compound",Melanoma SK-MEL-5 CL10007,3
same,"classification of cell line as Low(1), Medium(2), High(3) sensitivity to compound",Melanoma SK-MEL-28 CL10008,1
same,"classification of cell line as Low(1), Medium(2), High(3) sensitivity to compound",Melanoma UACC-62 CL10020,2
same,"classification of cell line as Low(1), Medium(2), High(3) sensitivity to compound",Melanoma UACC-257 CL10021,2
same,"classification of cell line as Low(1), Medium(2), High(3) sensitivity to compound",NSCLC A549/ATCC CL1004,2
same,"classification of cell line as Low(1), Medium(2), High(3) sensitivity to compound",NSCLC EKVX CL1008,1
same,"classification of cell line as Low(1), Medium(2), High(3) sensitivity to compound",NSCLC HOP-62 CL1026,2
same,"classification of cell line as Low(1), Medium(2), High(3) sensitivity to compound",NSCLC HOP-92 CL1029,2
same,sensitivity classification Low(1)/Medium(2)/High(3),NSCLC NCI-H23(I) CL1001,3
same,"classification of cell line as Low(1), Medium(2), High(3) sensitivity to compound",NSCLC NCI-H226 CL1013,2
same,sensitivity classification Low(1)/Medium(2)/High(3),NSCLC NCI-H332M CL1017,2
same,sensitivity classification Low(1)/Medium(2)/High(3),NSCLC NCI-H460 CL1021,3
same,sensitivity classification Low(1)/Medium(2)/High(3),NSCLC NCI-H522 CL1003,3
same,sensitivity classification Low(1)/Medium(2)/High(3),Ovarian IGROV1 CL6010,3
same,sensitivity classification Low(1)/Medium(2)/High(3),Ovarian OVCAR-3 CL6001,3
same,sensitivity classification Low(1)/Medium(2)/High(3),Ovarian OVCAR-4 CL6002,2
same,sensitivity classification Low(1)/Medium(2)/High(3),Ovarian OVCAR-5 CL6003,1
same,sensitivity classification Low(1)/Medium(2)/High(3),Ovarian OVCAR-8 CL6005,3
same,sensitivity classification Low(1)/Medium(2)/High(3),Ovarian SK-OV-3 CL6011,2
same,sensitivity classification Low(1)/Medium(2)/High(3),Prostate DU-145 CL11003,2
same,sensitivity classification Low(1)/Medium(2)/High(3),Prostate PC-3(I) CL11001,2
same,sensitivity classification Low(1)/Medium(2)/High(3),Renal 786-0 CL9018,2
same,sensitivity classification Low(1)/Medium(2)/High(3),Renal A498 CL9013,3
same,sensitivity classification Low(1)/Medium(2)/High(3),Renal ACHN CL9023,2
same,sensitivity classification Low(1)/Medium(2)/High(3),Renal CAKI-1 CL9015,2
same,sensitivity classification Low(1)/Medium(2)/High(3),Renal RXF-393 CL9016,2
same,sensitivity classification Low(1)/Medium(2)/High(3),Renal SN12C CL9008,2
same,sensitivity classification Low(1)/Medium(2)/High(3),Renal TK10 CL9024,1
same,sensitivity classification Low(1)/Medium(2)/High(3),Renal UO-31 CL9004,1
CC[C@]1(O)C[C@@H]2CN(CCc3c([nH]c4ccccc34)[C@@](C(=O)OC)(c3cc4c(cc3OC)N(C)[C@H]3[C@@](O)(C(=O)OC)[C@H](OC(C)=O)[C@]5(CC)C=CCN6CC[C@]43[C@@H]65)C2)C1 [Vinblastine sulfate],"classification of cell line as Low(1), Medium(2), High(3) sensitivity to compound",Breast HS-578T CL5006,3
same,"classification of cell line as Low(1), Medium(2), High(3) sensitivity to compound",Breast MCF7/ADRr CL5002,1
same,"classification of cell line as Low(1), Medium(2), High(3) sensitivity to compound",Breast MDA-MB-231 CL5005,2
same,"classification of cell line as Low(1), Medium(2), High(3) sensitivity to compound",Breast MDA-MB-435 CL5011,3
same,"classification of cell line as Low(1), Medium(2), High(3) sensitivity to compound",Breast MDA-N CL5012,3
same,"classification of cell line as Low(1), Medium(2), High(3) sensitivity to compound",CNS SF-268 CL12014,2
same,"classification of cell line as Low(1), Medium(2), High(3) sensitivity to compound",CNS SF-295 CL12015,2
same,"classification of cell line as Low(1), Medium(2), High(3) sensitivity to compound",CNS SF-539 CL12016,2
same,"classification of cell line as Low(1), Medium(2), High(3) sensitivity to compound",CNS SNB-19 CL12002,2
same,"classification of cell line as Low(1), Medium(2), High(3) sensitivity to compound",CNS U251(I) CL12009,2
same,"classification of cell line as Low(1), Medium(2), High(3) sensitivity to compound",Colon HCC-2998 CL4002,2
same,"classification of cell line as Low(1), Medium(2), High(3) sensitivity to compound",Colon HCT-15 CL4015,1
same,"classification of cell line as Low(1), Medium(2), High(3) sensitivity to compound",Colon KM12 CL4017,2
same,"classification of cell line as Low(1), Medium(2), High(3) sensitivity to compound",Colon SW-620 CL4009,2
same,"classification of cell line as Low(1), Medium(2), High(3) sensitivity to compound",Leukemia CCRF-CEM(I) CL7003,2
same,"classification of cell line as Low(1), Medium(2), High(3) sensitivity to compound",Leukemia HL-60(I) CL7008,3
same,"classification of cell line as Low(1), Medium(2), High(3) sensitivity to compound",Leukemia MOLT-4 CL7006,2
same,"classification of cell line as Low(1), Medium(2), High(3) sensitivity to compound",Melanoma M14 CL10014,2
same,"classification of cell line as Low(1), Medium(2), High(3) sensitivity to compound",Melanoma MALME-3M CL10002,2
same,"classification of cell line as Low(1), Medium(2), High(3) sensitivity to compound",Melanoma SK-MEL-2 CL10005,2
same,"classification of cell line as Low(1), Medium(2), High(3) sensitivity to compound",Melanoma SK-MEL-5 CL10007,3
same,"classification of cell line as Low(1), Medium(2), High(3) sensitivity to compound",Melanoma SK-MEL-28 CL10008,2
same,"classification of cell line as Low(1), Medium(2), High(3) sensitivity to compound",Melanoma UACC-62 CL10020,3
same,"classification of cell line as Low(1), Medium(2), High(3) sensitivity to compound",NSCLC A549/ATCC CL1004,2
same,"classification of cell line as Low(1), Medium(2), High(3) sensitivity to compound",NSCLC EKVX CL1008,1
same,"classification of cell line as Low(1), Medium(2), High(3) sensitivity to compound",NSCLC HOP-62 CL1026,2
same,"classification of cell line as Low(1), Medium(2), High(3) sensitivity to compound",NSCLC HOP-92 CL1029,2
same,sensitivity classification Low(1)/Medium(2)/High(3),NSCLC NCI-H23(I) CL1001,2
same,"classification of cell line as Low(1), Medium(2), High(3) sensitivity to compound",NSCLC NCI-H226 CL1013,2
same,sensitivity classification Low(1)/Medium(2)/High(3),NSCLC NCI-H332M CL1017,2
same,sensitivity classification Low(1)/Medium(2)/High(3),NSCLC NCI-H460 CL1021,2
same,sensitivity classification Low(1)/Medium(2)/High(3),NSCLC NCI-H522 CL1003,3
same,sensitivity classification Low(1)/Medium(2)/High(3),Ovarian IGROV1 CL6010,2
same,sensitivity classification Low(1)/Medium(2)/High(3),Ovarian OVCAR-3 CL6001,3
same,sensitivity classification Low(1)/Medium(2)/High(3),Ovarian OVCAR-8 CL6005,2
same,sensitivity classification Low(1)/Medium(2)/High(3),Ovarian SK-OV-3 CL6011,2
same,sensitivity classification Low(1)/Medium(2)/High(3),Renal 786-0 CL9018,2
same,sensitivity classification Low(1)/Medium(2)/High(3),Renal CAKI-1 CL9015,2
same,sensitivity classification Low(1)/Medium(2)/High(3),Renal RXF-393 CL9016,2
same,sensitivity classification Low(1)/Medium(2)/High(3),Renal SN12C CL9008,2
same,sensitivity classification Low(1)/Medium(2)/High(3),Renal TK10 CL9024,1
same,sensitivity classification Low(1)/Medium(2)/High(3),Renal UO-31 CL9004,1
